Patent US20260021092A1, “STRUCTURE-BASED DESIGN OF A NOVEL CLASS OF DRUGS FOR NEURODEGENERATIVE DISEASE” (The Regents of the University of California, priority 2022, published 2026)

How the values were obtained:
[1] = system: AD brain-derived tau fibrils; assay: Dot blot of AD tau aggregates with antibody GT38 during EGCG incubation; type: biochemical, human; conditions: EGCG incubation 1, 3, 6 and 24 hours at 37°
Method: Brain-derived tau PHFs were incubated with 80 μM EGCG at 37° C. in PBS various lengths of time. Samples were spotted onto nitrocellulose membrane, 20 μL were spotted for each condition, spotting 2 μL at a time and allowing to dry in between. Membrane was blocked for 1 hour in TBST with 5% milk and washed with TBST three times. Membrane was then incubated with primary antibody (either anti-tau GT38 (obtained from Virginia Lee lab at UPenn) or anti-phospho-tau AT8 (cat #MN1020, lot #UL2906281Z), 1:4000 dilution in 2% milk/TBST solution) for 1 hour, washed three times with TBST, incubated with horseradish peroxidase-conjugated secondary antibody (goat anti-mouse IgG H and L (HRP); 1:5000 Dilution in 2% milk/TBST), and washed three times in TBST. Signal was detected with Pierce ECL Plus Western Blotting Substrate (cat #32132), and blot was imaged with a Pharos FX Plus Molecular Imager.

[2] = molecular target: AD-tau fibrils seeding HEK293 cells expressing tau-K18 P301S-eYFP (Homo sapiens, UniProt P10636); assay: Tau biosensor cell seeding assay; type: cell-based; set-up: dose or concentration left out as unconfirmed; conditions: screen; final inhibitor concentration on the biosensor cells
Sequence of AD-tau fibrils seeding HEK293 cells expressing tau-K18 P301S-eYFP (P10636 623-695 limits assumed, stated change not applied): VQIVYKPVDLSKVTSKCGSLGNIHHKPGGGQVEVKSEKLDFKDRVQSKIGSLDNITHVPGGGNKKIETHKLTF
Method: Disaggregating molecules that produce active seeds are undesirable for therapy and are excluded from further study. HEK293T cells expressing CFP- or YFP-fused tau are transduced with exogenous AD tau fibrils.
Inhibitors were dissolved in DMSO. […] The number of seeded aggregates was determined by imaging the entire well of a 96-well plate in triplicate using a Celigo Image Cytometer (Nexcelom) in the YFP channel. […] The number of aggregates was normalized to the confluence of each well, and dose-response plots were generated by calculating the average and standard deviations from triplicate measurements.

[3] = system: AD brain-derived tau fibrils; assay: Negative-stain EM and quantitative EM (qEM) of tau fibrils after compound incubation
Method: We then scrutinized the four CNS-Set inhibitors by quantitative EM (qEM) imaging (FIG. 3c, see Methods).
Negatively stained EM Grids were prepared by depositing 6 μl of sample on formvar/carbon coated copper grids (400 mesh) for 3 min with. Sample was rapidly wicked using filter paper without drying the grid, and stained with 1% uranyl acetate for 2 min. […] Fibrils were counted from collections of 33 micrographs (in triplicate) for each experimental condition.

For `O=C(O[C@@H]1Cc2c(O)cc(O)cc2O[C@@H]1c1cc(O)c(O)c(O)c1)c1cc(O)c(O)c(O)c1` [EGCG, epigallocatechin gallate], the “time at which reduction in GT38-positive tau aggregate level begins” value [1] was 1 to 3 h, the “inhibition of seeding in tau biosensor cells (in words)” value [2] was “prevents the formation of any seeds” and the “appearance of fibrils in negative stain electron micrographs” value ([3]; 3-hour EGCG incubation) was “largely intact but somewhat swollen”. The “appearance of fibrils in negative stain electron micrographs” value ([3]; 24 hours of EGCG incubation) was “nearly gone” and the “fibrils seen by electron microscopy (qualitative)” value ([3]; tau fibrils treated with each compound) was “Few fibrils”.
